Experimental findings from ChEMBL document CHEMBL1157141, “Prediction of intestinal absorption and metabolism of pharmacologically active flavones and flavanones” (Bioorg Med Chem, 2008) are described below.

Data set [1] is described as follows: Ratio of permeability from basolateral to apical side over apical to basolateral side in human Caco-2 cells. The class given is ADME, cell-based. For orientation: Passage across Caco-2 layers is used to estimate intestinal permeability.
The nature of data set [2]: Stability in hank's balanced salt solution at 15 uM after 180 mins. The class given is physicochemical. The note with it: read-out: Stability.
Data set [3] can be described thus: Apparent permeability from basolateral to apical side in human Caco-2 cells. The data set is classed as ADME, cell-based. As to conditions: read-out: permeability.
The nature of data set [4]: Stability in hank's balanced salt solution at 15 uM after 60 mins. The class given is physicochemical. As to conditions: read-out: Stability.
Data set [5] in a line: Stability in hank's balanced salt solution at 15 uM after 20 mins. The data set is classed as physicochemical. The note with it: read-out: Stability.
Data set [6] in a line: Apparent permeability from apical to basolateral side in human Caco-2 cells assessed as drug recovery. The data set is classed as ADME, cell-based. As to conditions: read-out: Activity.
A short description of data set [7]: Apparent permeability across PAMPA membrane. As to conditions: read-out: permeability. The data set is classed as ADME.
Data set [8] in a line: Stability in hank's balanced salt solution at 15 uM after 24 hrs. The class given is physicochemical. As to conditions: read-out: Stability.
Data set [9] can be described thus: Apparent permeability from apical to basolateral side in human Caco-2 cells. The class given is ADME, cell-based. The note with it: read-out: permeability.
Data set [10] can be described thus: Stability in hank's balanced salt solution at 15 uM after 120 mins. The data set is classed as physicochemical. As to conditions: read-out: Stability.
Data set [11] is described as follows: Apparent permeability across PAMPA membrane assessed as drug recovery. The class given is ADME. The note with it: read-out: Activity. Background: PAMPA measures passive passage across an artificial lipid membrane.
The nature of data set [12]: Apparent permeability from basolateral to apical side in human Caco-2 cells assessed as drug recovery. The class given is ADME, cell-based. The note with it: read-out: Activity.

Take `COc1ccc(-c2cc(=O)c3c(O)cc(O)cc3o2)cc1O` [DIOSMETIN]: the efflux ratio in data set [1] came out at 0.2. The remaining at 3 h, 15 µM in [2] was determined as 98.4%. Besides, the Papp B→A in [3] turned out to be 12.4 ×10⁻⁶ cm/s. The remaining at 1 h, 15 µM in [4] was found to be 96.5%. Also, the remaining at 20 min, 15 µM in [5] worked out at 100%. The recovery in data set [6] was determined as 59.1%; in [11], 82%; in data set [12], 66.8%. The Papp in data set [7] stood at 76.1 ×10⁻⁶ cm/s. Moreover, the remaining at 24 h, 15 µM in data set [8] amounted to 50.9%. In data set [9], the Papp A→B stood at 76.2 ×10⁻⁶ cm/s. Further, in data set [10], the remaining at 2 h, 15 µM is 101%.

As to `COc1ccc(-c2cc(=O)c3c(O)cc(O[C@@H]4O[C@H](CO[C@@H]5O[C@@H](C)[C@H](O)[C@@H](O)[C@H]5O)[C@@H](O)[C@H](O)[C@H]4O)cc3o2)cc1O` [DIOSMIN], the remaining at 3 h, 15 µM in [2] was found to be 78.4%. Also, the remaining at 20 min, 15 µM in data set [5] stood at 103%. For the same compound, the figures for the recovery in [6] and in [12] were 61.9% and 68.9%, respectively. Further, the remaining at 24 h, 15 µM in data set [8] came out at 0%. Also, the remaining at 2 h, 15 µM in data set [10] stood at 88.6%.

`COc1ccc([C@@H]2CC(=O)c3c(O)cc(O)cc3O2)cc1O` [HESPERETIN]: the efflux ratio in [1] is 0.6. In addition, the remaining at 3 h, 15 µM in data set [2] was 90.8%. The Papp B→A in [3] came to 27 ×10⁻⁶ cm/s. Besides, the remaining at 1 h, 15 µM in data set [4] is 99.9%. Besides, the remaining at 20 min, 15 µM in data set [5] stood at 94.5%. Besides, the values for the recovery in [6], in [11] and in data set [12] were 34.1%, 84% and 70.1%, respectively. Moreover, in [7], the Papp came out at 35.7 ×10⁻⁶ cm/s. In data set [8], the remaining at 24 h, 15 µM is 80%. Also, the Papp A→B in data set [9] was 47.1 ×10⁻⁶ cm/s. Also, in data set [10], the remaining at 2 h, 15 µM turned out to be 91.1%.

Consider `COc1ccc([C@@H]2CC(=O)c3c(O)cc(O[C@@H]4O[C@H](CO[C@@H]5O[C@@H](C)[C@H](O)[C@@H](O)[C@H]5O)[C@@H](O)[C@H](O)[C@H]4O)cc3O2)cc1O` [HESPERIDIN], for which, in data set [2], the remaining at 3 h, 15 µM amounted to 86.3%. Further, the remaining at 20 min, 15 µM in [5] worked out at 99.8%. The recovery in [6] stood at 76.9%; in [12] it was 80.2%. In addition, in data set [8], the remaining at 24 h, 15 µM is 84.9%. Also, in data set [10], the remaining at 2 h, 15 µM was found to be 87.9%.

`O=C1C[C@@H](c2ccc(O)cc2)Oc2cc(O)cc(O)c21` [NARINGENIN]: the remaining at 3 h, 15 µM in data set [2] was found to be 91.2%. The Papp B→A in data set [3] came to 51.4 ×10⁻⁶ cm/s. Moreover, the remaining at 1 h, 15 µM in data set [4] came out at 99.4%. In addition, the recovery in data set [6] amounted to 54.4%; in data set [11], 87%; in [12], 93%. In addition, in data set [7], the Papp came out at 25.7 ×10⁻⁶ cm/s. Moreover, the remaining at 24 h, 15 µM in data set [8] came out at 79.9%. The Papp A→B in data set [9] was 37.8 ×10⁻⁶ cm/s. The remaining at 2 h, 15 µM in data set [10] was 100%.

`C[C@@H]1O[C@@H](O[C@H]2[C@H](Oc3cc(O)c4c(c3)O[C@H](c3ccc(O)cc3)CC4=O)O[C@H](CO)[C@@H](O)[C@@H]2O)[C@H](O)[C@H](O)[C@H]1O` [NARINGIN]: the remaining at 3 h, 15 µM in data set [2] is 90.4%. In addition, the remaining at 20 min, 15 µM in data set [5] was found to be 98.3%. The recovery was found to be 85.7% in data set [6] and 88.4% in data set [12]. Further, in data set [8], the remaining at 24 h, 15 µM was 88.5%. Moreover, the remaining at 2 h, 15 µM in data set [10] stood at 92.2%.

Broadly, the efflux ratio is a quotient of directional permeabilities that is used to spot active efflux.
